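Compound exposure: 48 hours, 5 concentrations, 96-well plates. At the TGI there is no net growth.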
Key:
Assay in all cases: NCI-60 cell line screen, 48 h
[1] = tested on: SNB-78 CNS
[2] = tested on: SK-MEL-5 melanoma
[3] = tested on: HCT-15 colon
[4] = tested on: HOP-92 NSCLC
[5] = tested on: SW-620 colon
[6] = tested on: MOLT-4 leukemia
[7] = tested on: A549 NSCLC
[8] = tested on: IGROV1 ovarian
[9] = tested on: SF-539 CNS
[10] = tested on: M14 melanoma
[11] = tested on: TK-10 renal
[12] = tested on: DMS 114 small cell lung
[13] = tested on: HOP-62 NSCLC
[14] = tested on: OVCAR-8 ovarian
[15] = tested on: CCRF-CEM leukemia
[16] = tested on: HL-60(TB) leukemia
[17] = tested on: UO-31 renal
[18] = tested on: M19-MEL melanoma
[19] = tested on: RXF 393 renal
[20] = tested on: SK-MEL-28 melanoma
[21] = tested on: K-562 leukemia
[22] = tested on: HCT-116 colon
[23] = tested on: KM20L2 colon
[24] = tested on: HT29 colon
[25] = tested on: LXFL 529 NSCLC
[26] = tested on: OVCAR-3 ovarian
[27] = tested on: COLO 205 colon
[28] = tested on: OVCAR-5 ovarian
[29] = tested on: EKVX NSCLC
[30] = tested on: UACC-62 melanoma
[31] = tested on: UACC-257 melanoma
[32] = tested on: OVCAR-4 ovarian
[33] = tested on: LOX IMVI melanoma
[34] = tested on: HCC-2998 colon
[35] = tested on: RPMI-8226 leukemia
[36] = tested on: DMS 273 small cell lung
[37] = tested on: SF-268 CNS
[38] = tested on: NCI-H23 lung
[39] = tested on: U251 CNS
[40] = tested on: SNB-19 CNS
[41] = tested on: SN12C renal
[42] = tested on: KM12 colon
[43] = tested on: SK-MEL-2 melanoma
[44] = tested on: 786-0 renal
[45] = tested on: SR leukemia
[46] = tested on: CAKI-1 renal
[47] = tested on: MALME-3M melanoma
[48] = tested on: NCI/ADR-RES ovarian
[49] = tested on: SF-295 CNS
[50] = tested on: BT-549 breast
[51] = tested on: A498 renal
[52] = tested on: MDA-MB-435
[53] = tested on: NCI-H522 lung
[54] = tested on: ACHN renal
[55] = tested on: MCF7 breast
[56] = tested on: PC-3 prostate
[57] = tested on: DU-145 prostate
[58] = tested on: HS 578T breast
[59] = tested on: SNB-75 CNS
[60] = tested on: MDA-N
[61] = tested on: NCI-H460 lung
[62] = tested on: NCI-H226 lung
[63] = tested on: MDA-MB-231 breast
[64] = tested on: T-47D breast
[65] = tested on: SK-OV-3 ovarian
[66] = tested on: DLD-1 colon
[67] = tested on: HOP-18 NSCLC

COc1ccc(C(=O)NNC(=O)c2nsc3ccccc23)cc1
TGI [1]: > 100 µM
TGI [2]: > 100 µM
TGI [3]: > 100 µM
TGI [4]: > 100 µM
TGI [5]: > 100 µM
TGI [6]: > 100 µM
TGI [7]: > 100 µM
TGI [8]: > 100 µM
TGI [9]: > 100 µM
TGI [10]: > 100 µM
TGI [11]: > 100 µM
TGI [12]: > 100 µM
TGI [13]: > 100 µM
TGI [14]: > 100 µM
TGI [15]: > 100 µM
TGI [16]: 82.5 µM
TGI [17]: > 100 µM
TGI [18]: > 100 µM
TGI [19]: > 100 µM
TGI [20]: > 100 µM
TGI [21]: > 100 µM
TGI [22]: > 100 µM
TGI [23]: > 100 µM
TGI [24]: > 100 µM
TGI [25]: > 100 µM
TGI [26]: > 100 µM
TGI [27]: > 100 µM
TGI [28]: > 100 µM
TGI [29]: > 100 µM
TGI [30]: > 100 µM
TGI [31]: > 100 µM
TGI [32]: > 100 µM
TGI [33]: > 100 µM
TGI [34]: > 100 µM
TGI [35]: > 100 µM
TGI [36]: > 100 µM
TGI [37]: > 100 µM
TGI [38]: > 100 µM
TGI [39]: > 100 µM
TGI [40]: > 100 µM
TGI [41]: > 100 µM
TGI [42]: > 100 µM
TGI [43]: > 100 µM

CCC1CCC2C3CC=C4CC(OC(C)=O)C(N)CC4(C)C3CCC12C (stereo not drawn)
TGI [44]: 3.79 µM
TGI [2]: 3.7 µM
TGI [45]: 6.07 µM
TGI [3]: 12.5 µM
TGI [4]: 10.8 µM
TGI [5]: 11.2 µM
TGI [6]: 8.01 µM
TGI [7]: 5.13 µM
TGI [8]: 18.2 µM
TGI [46]: 22.9 µM
TGI [47]: 8.33 µM
TGI [48]: 14.2 µM
TGI [49]: 8.03 µM
TGI [9]: 3.5 µM
TGI [50]: 10.6 µM
TGI [10]: 3.6 µM
TGI [11]: 6.1 µM
TGI [13]: 4.47 µM
TGI [14]: 6.75 µM
TGI [15]: 10 µM
TGI [16]: 4.48 µM
TGI [17]: 9.68 µM
TGI [51]: 9.63 µM
TGI [19]: 3.68 µM
TGI [20]: 10.4 µM
TGI [21]: 4.91 µM
TGI [22]: 6.14 µM
TGI [24]: 6.32 µM
TGI [52]: 5.66 µM
TGI [26]: 10.5 µM
TGI [27]: 10 µM
TGI [53]: 6.67 µM
TGI [54]: 17.6 µM
TGI [55]: 14 µM
TGI [56]: 7.97 µM
TGI [28]: 14.1 µM
TGI [57]: 8.33 µM
TGI [58]: 5.1 µM
TGI [29]: 13.8 µM
TGI [59]: 5.51 µM
TGI [30]: 9.32 µM
TGI [31]: 4.55 µM
TGI [60]: 6.92 µM
TGI [32]: 18 µM
TGI [33]: 4.12 µM
TGI [34]: 3.06 µM
TGI [35]: 8.3 µM
TGI [61]: 3.53 µM
TGI [37]: 9.08 µM
TGI [62]: 39.7 µM
TGI [63]: 4.09 µM
TGI [38]: 13.6 µM
TGI [64]: 12.6 µM
TGI [39]: 3.68 µM
TGI [40]: 6.49 µM
TGI [65]: 24.1 µM
TGI [41]: 9.87 µM
TGI [42]: 8.64 µM
TGI [43]: 8.32 µM

OCC(O)C(O)C(O)c1nn[nH]n1 (stereo not drawn)
TGI [44]: > 100 µM
TGI [1]: > 100 µM
TGI [2]: > 100 µM
TGI [45]: > 100 µM
TGI [3]: > 100 µM
TGI [4]: > 100 µM
TGI [5]: > 100 µM
TGI [6]: > 100 µM
TGI [8]: > 100 µM
TGI [46]: > 100 µM
TGI [47]: > 100 µM
TGI [66]: > 100 µM
TGI [49]: > 100 µM
TGI [9]: > 100 µM
TGI [10]: > 100 µM
TGI [12]: > 100 µM
TGI [13]: > 100 µM
TGI [14]: > 100 µM
TGI [15]: > 100 µM
TGI [16]: > 100 µM
TGI [17]: > 100 µM
TGI [18]: > 100 µM
TGI [21]: > 100 µM
TGI [22]: > 100 µM
TGI [24]: > 100 µM
TGI [25]: > 100 µM
TGI [26]: > 100 µM
TGI [27]: > 100 µM
TGI [53]: > 100 µM
TGI [54]: > 100 µM
TGI [28]: > 100 µM
TGI [29]: > 100 µM
TGI [59]: > 100 µM
TGI [30]: > 100 µM
TGI [32]: > 100 µM
TGI [33]: > 100 µM
TGI [35]: > 100 µM
TGI [61]: > 100 µM
TGI [36]: > 100 µM
TGI [37]: > 100 µM
TGI [62]: > 100 µM
TGI [38]: > 100 µM
TGI [39]: > 100 µM
TGI [65]: > 100 µM
TGI [41]: > 100 µM
TGI [42]: > 100 µM
TGI [43]: > 100 µM

O=C(O)\C=C/C=C/C=C/C=C/C(=O)O
TGI [44]: > 100 µM
TGI [1]: > 100 µM
TGI [2]: > 100 µM
TGI [45]: > 100 µM
TGI [3]: > 100 µM
TGI [5]: > 100 µM
TGI [6]: > 100 µM
TGI [7]: > 100 µM
TGI [8]: > 100 µM
TGI [46]: > 100 µM
TGI [47]: > 100 µM
TGI [66]: > 100 µM
TGI [49]: > 100 µM
TGI [9]: > 100 µM
TGI [10]: > 100 µM
TGI [12]: > 100 µM
TGI [13]: > 100 µM
TGI [14]: > 100 µM
TGI [15]: > 100 µM
TGI [16]: > 100 µM
TGI [17]: > 100 µM
TGI [51]: > 100 µM
TGI [19]: > 100 µM
TGI [20]: > 100 µM
TGI [21]: > 100 µM
TGI [22]: > 100 µM
TGI [23]: > 100 µM
TGI [24]: > 100 µM
TGI [25]: > 100 µM
TGI [26]: > 100 µM
TGI [27]: > 100 µM
TGI [53]: > 100 µM
TGI [54]: > 100 µM
TGI [28]: > 100 µM
TGI [67]: > 100 µM
TGI [29]: > 100 µM
TGI [59]: > 100 µM
TGI [30]: > 100 µM
TGI [31]: > 100 µM
TGI [32]: > 100 µM
TGI [33]: > 100 µM
TGI [34]: > 100 µM
TGI [35]: > 100 µM
TGI [61]: > 100 µM
TGI [36]: > 100 µM
TGI [37]: > 100 µM
TGI [62]: > 100 µM
TGI [38]: > 100 µM
TGI [39]: > 100 µM
TGI [40]: > 100 µM
TGI [65]: > 100 µM
TGI [41]: > 100 µM
TGI [42]: > 100 µM
TGI [43]: > 100 µM
